Assay results taken from the supplement of paper PMC5412046.
Counter-ions that a name gives are not always drawn.

What was measured:
SB.mhdgc-1 = test: AC50 for growth inhibition (viability) (log10 M); higher = less potent; conditions: SB.mhdgc-1 (hereditary c.1380delA CDH1 gastric cancer)
In short: (§1)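 Log half-maximal activity concentration reflects viability of patient-derived gastric cancer cells, hereditary or sporadic, normalised to DMSO and fitted with four parameters, with only high-quality curve classes retained. Wells of a 1536 plate held 500 cells and received compound by pintool at 11 threefold dilutions from a final 46 μM. Luminescence from CellTiter-Glo was read on a ViewLux at 48 h.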

SB.msgc-1 = test: as above; conditions: SB.msgc-1 (sporadic gastric cancer)
In short: as §1

Compound	AC50 for growth inhibition (log10 M) (SB.mhdgc-1)	AC50 for growth inhibition (log10 M) (SB.msgc-1)
CCOc1cc(N2CCC(O)CC2)ccc1Nc1ncc2c(n1)N(C)c1ccccc1C(=O)N2C [XMD8-92]	-5.98	-5.18
NC(=O)N1CCC(CC(=O)N2CCC([C@H]3c4ncc(Br)cc4CCc4cc(Cl)cc(Br)c43)CC2)CC1 [Lonafarnib]	-4.78	-4.78
CCOC(=O)[C@H](CCc1ccccc1)N[C@@H](C)C(=O)N1[C@H](C(=O)O)C[C@@H]2CCC[C@@H]21 [Ramipril]	-5.18	-4.73
S=C(NCc1ccc2c(c1)OCO2)N1CCN(c2ncnc3c2oc2ccccc23)CC1 [Amuvatinib]	-4.92	-5.57
NC(CSC(c1ccccc1)(c1ccccc1)c1ccccc1)C(=O)O (stereo in doubt) [S-Trityl-L-cysteine]	-5.58	-5.03
C=CC(=O)Nc1cccc(Oc2nc(Nc3ccc(N4CCN(C)CC4)cc3)ncc2Cl)c1 [WZ-3146]	-5.18	-5.88
COC1=CC=C(C=C1)C2CC(=N/N2C3=CC=C(C=C3)[S+](N)([O-])=O)\C4=CC=CC=C4 (stereo not given) [ML 141]	-4.68	-4.73
COc1cc(C(C)C)c(Oc2cnc(NC(CO)CO)nc2N)cc1I [Ro 51]	-6.63	-6.18
NC1=NC=C(C=C1)C2=CC=C3N=CC\4=C(N(C(=O)\C=C4)C5=CC(=CC=C5)C(F)(F)F)C3=C2 [Torin-2]	-6.48	-6.78
CCOC(=O)N1CCN(/[N+]([O-])=N/Oc2cc(O/N=[N+](\[O-])N3CCN(C(=O)OCC)CC3)c([N+](=O)[O-])cc2[N+](=O)[O-])CC1 [Double JS-K]	-5.03	-4.63
C=C1C(=O)O[C@@H]2[C@H]3O[C@]3(C)CC/C=C(\C)CC[C@@H]12 [Parthenolide]	-5.18	-4.83
CCn1nnc2c(N3CCOCC3)nc(-c3ccc(NC(=O)Nc4ccc(C(=O)N5CCN(C)CC5)cc4)cc3)nc21 [PKI-402]	-5.43	-5.88
CCCCOc1c(C(=O)c2c(F)cc(C)cc2F)cnc2[nH]ncc12	-5.63	-5.63
CNC1CCC(N(Cc2cccc(-c3ccncc3)c2)C(=O)c2sc3ccccc3c2Cl)CC1 (stereo not given) [SAG]	-4.93	-4.88
Cc1cn2c(-c3cn[nH]c3)cnc2c(Nc2ccc(C(=O)N3CCNCC3)cc2F)n1	-4.98	-4.83
CNc1nccc(-c2cccnc2Oc2cc(C(=O)Nc3cccc(C(F)(F)F)c3)ccc2C)n1 [AMG-Tie2-1]	-4.83	-4.63
COc1c(C)c2c(c(O)c1C/C=C(\C)CCC(=O)OCCN1CCOCC1)C(=O)OC2 [Mycophenolate mofetil]	-5.88	-5.03
CC(C)(O)/C=C\C(=O)[C@](C)(O)[C@H]1[C@H](O)C[C@]2(C)[C@@H]3CC=C4[C@@H](C=C(O)C(=O)C4(C)C)[C@]3(C)C(=O)C[C@@]12C [Cucurbitacin I]	-7.43	-5.98
Clc1cc(Cl)cc(CNc2ncncc2-c2ccc3c(c2)OCO3)c1	-5.28	-4.78
COC1=CC=C(C=C1)/C2=C(O)/C(=O)C3=C(O)C=C(O)C(=C3O2)CC=C(C)C [Icaritin]	-4.88	-4.63
CCCCCCNC(=O)N1\C=C(F)/C(=O)NC1=O [Carmofur]	-6.33	-5.48
O=C(CC12CC3CC(CC(C3)C1)C2)Nc1cccc2nc(NCCNCCO)ccc12	-4.83	-4.78
CN1C(=O)C(=C/2N(C(=O)N(C3CC3)C(=O)C2=C1/NC4=CC=C(I)C=C4F)C5=CC=CC(=C5)NC(C)=O)\C [Trametinib]	-5.03	-6.63

Compound	AC50 for growth inhibition (log10 M) (SB.mhdgc-1)	AC50 for growth inhibition (log10 M) (SB.msgc-1)
CNC1CCC(N(Cc2cccc(-c3ccncc3)c2)C(=O)c2sc3c(F)ccc(F)c3c2Cl)CC1 (stereo not given) [Hh-Ag1.5]	-4.73	-4.83
C[C@H]1C[C@@H]2[C@H](CC[C@@]3(C)[C@H]2CC[C@]3(OC(C)=O)C(C)=O)[C@@]\4(C)CCC(=O)\C=C14 [Medroxyprogesterone acetate]	-5.23	-4.83
CC(=O)N1CCN(c2ccc(OCc3nn(C)c(C)c3-c3cccc4c(CCCOc5cccc6ccccc56)c(C(=O)O)n(Cc5cccnc5)c34)cc2)CC1	-5.63	-5.63
c1ccc(CCCN2CCN(CCOC(c3ccccc3)c3ccccc3)CC2)cc1	-4.73	-4.68
COc1cc(Nc2ncc(F)c(Nc3ccc4c(n3)N(COP(=O)(O)O)C(=O)C(C)(C)O4)n2)cc(OC)c1OC [Fostamatinib disodium]	-5.33	-5.93
CN1C(=O)\C(=C/C(=C1/NC2=C(F)C=C(I)C=C2)C(=O)NOCCO)C [AZD-8330]	-4.78	-7.58
C=CCNc1c(O)cc2c(O)c1C[C@@H](C)C[C@H](OC)[C@H](O)[C@@H](C)/C=C(/C)[C@H](OC(N)=O)[C@@H](OC)/C=C\C=C(\C)C(=O)N2 [Retaspimycin]	-6.88	-7.48
NC\1=N\C(=O)N(\C=C1F)[C@H]2C[C@H](O)[C@@H](CO)O2	-8.38	-6.53
C[N]1C=C(C2=CC=CC=C12)\C3=C(\C(=O)NC3=O)C4=C[N](C5CCN(CC5)CC6=NC=CC=C6)C7=C4C=CC=C7 [Enzastaurin]	-4.98	-4.98
CCCCCC[C@H]1C(=O)O[C@H](C)[C@H](NC(=O)c2cccc(NC=O)c2O)C(=O)O[C@@H](C)[C@@H]1OC(=O)CC(C)C [Antimycin A]	-7.08	-7.13
COC(=O)/C=C/C(=O)OC [Dimethyl fumarate]	-5.68	-5.48
NC1(C(=O)N[C@@H](CCO)c2ccc(Cl)cc2)CCN(c2ncnc3[nH]ccc23)CC1 [AZD-5363]	-5.23	-5.08
c1ccc(CNc2nc(NCc3ccccc3)c3ccccc3n2)cc1	-5.03	-5.03
CNC1CCCN(c2c(F)cc3c(=O)c(C(=O)O)cn(C4CC4)c3c2OC)C1 (stereo not given) [Balofloxacin]	-5.63	-4.83
C=CC(=O)N1CCC[C@@H](n2nc(-c3ccc(Oc4ccccc4)cc3)c3c(N)ncnc32)C1	-5.98	-7.48
C/C(O)=C(\C#N)C(=O)Nc1ccc(C(F)(F)F)cc1 [Teriflunomide]	-4.63	-4.78
CC1(C)CNc2cc(NC(=O)c3cccnc3NCc3ccncc3)ccc21 [Motesanib]	-7.23	-5.98
COC1=CC(=CC=C1)C2=CC=C(NC(=O)/C3=C(/CCC3)C(O)=O)C(=C2)F [Vidofludimus]	-5.33	-4.88
CCNC(=O)Nc1ccc2ncc(Nc3ccc(C)cc3)nc2n1	-7.43	-6.43
O=C(NC1CCNCC1)c1n[nH]cc1NC(=O)c1c(Cl)cccc1Cl [AT-7519]	-7.18	-6.68
N#C/N=C(\NCCCCCCOc1ccc(Cl)cc1)Nc1ccncc1 [GMX-1778]	-8.08	-6.88
Cc1cc(OCCCc2c(C(=O)O)n(Cc3cccnc3)c3c(-c4c(COc5ccc(N6CCN([S+](C)(=O)[O-])CC6)cc5)nn(C)c4C)cccc23)cc(C)c1Cl	-4.73	-4.63
